Read-outs that look alike come from different tables or passages of the source.

The target in one experiment is T1, kinase domain of cKIT (Homo sapiens, UniProt P10721).
T1 construct: The kinase domain of cKIT was assayed in 50 mM Hepes; purchased Upstate 14-559
Briefly: Inhibition of cKIT kinase signaling in an in vitro biochemical assay (alphascreen). The conditions noted are these: tested at about 1 μM, read-out: cKit percent inhibition.

Another experiment addresses T2, kinase domain of PDGFRβ (Homo sapiens, UniProt P09619).
T2 construct: The kinase domain of PDGFRβ was assayed in 50 mM Hepes; purchased Invitrogen P3082
Briefly: Inhibition of PDGFRb kinase signaling in an in vitro biochemical assay (alphascreen). The conditions noted are these: tested at about 1 μM, read-out: PDGFRβ percent inhibition.

The target of experiment [1] is T3, cytoplasmic domain of the human CSF-1R (Homo sapiens, UniProt P07333).
T3 construct: Recombinant protein corresponding to the cytoplasmic domain of the human CSF-1R; purchased Invitrogen Corporation, Carlsbad, Calif; PV3249
T3 sequence (P07333 539-972 limits assumed): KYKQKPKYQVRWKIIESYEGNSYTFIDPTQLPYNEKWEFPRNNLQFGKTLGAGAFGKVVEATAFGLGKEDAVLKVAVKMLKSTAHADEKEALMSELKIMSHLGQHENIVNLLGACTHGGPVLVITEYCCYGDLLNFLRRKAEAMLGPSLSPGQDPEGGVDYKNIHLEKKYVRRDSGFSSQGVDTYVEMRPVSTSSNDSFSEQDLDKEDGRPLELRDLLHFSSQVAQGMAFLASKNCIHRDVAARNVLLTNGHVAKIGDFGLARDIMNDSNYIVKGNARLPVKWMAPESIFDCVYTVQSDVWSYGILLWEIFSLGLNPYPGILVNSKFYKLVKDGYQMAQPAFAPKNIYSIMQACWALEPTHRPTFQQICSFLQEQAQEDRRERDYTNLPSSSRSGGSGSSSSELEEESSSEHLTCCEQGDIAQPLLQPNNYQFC
Kind of experiment: In vitro kinase assay for colony stimulating factor-1 receptor (AlphaScreen). Conditions: tested at about 1 μM, read-out: CSF-1R percent inhibition. In kind it is biochemical. In a few lines:
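Test compounds, serially diluted threefold starting at 25 μM, were mixed with Hepes buffer (pH 7.5, Mg2+/Mn2+, DTT, BSA, Tween 80) containing 1 μM ATP. Recombinant kinase was present at 4 nM. After stopping, beads were added and plates were read the next day by AlphaScreen.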

The subject of experiment [2] is MNFS60 (murine AML cells). Briefly: Cell viability assay in MCSF dependent MNFS60 cells (Cell Titer Glo). In kind it is cell-based. Conditions: Mus musculus, tested at about 1 μM, read-out: M-NFS-60 CP percent inhibition. Put shortly: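 3-fold DMSO dilution series (500× stocks); MCSF 10 ng/ml final; 72 hrs, 37° C., 5% CO2; CellTiter-Glo read-out; n=3; EC50 fitted.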

T2 sequence (P09619 600-962 limits assumed): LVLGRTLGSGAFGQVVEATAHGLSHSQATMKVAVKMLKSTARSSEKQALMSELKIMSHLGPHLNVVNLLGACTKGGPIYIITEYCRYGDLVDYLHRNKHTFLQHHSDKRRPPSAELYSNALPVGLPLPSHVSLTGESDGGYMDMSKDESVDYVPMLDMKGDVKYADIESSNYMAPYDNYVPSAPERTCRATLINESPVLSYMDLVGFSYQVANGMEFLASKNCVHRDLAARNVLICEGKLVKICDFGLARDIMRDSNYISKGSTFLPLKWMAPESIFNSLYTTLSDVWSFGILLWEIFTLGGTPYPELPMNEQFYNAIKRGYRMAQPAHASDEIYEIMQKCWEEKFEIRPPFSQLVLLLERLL
T1 sequence (P10721 589-937 limits assumed): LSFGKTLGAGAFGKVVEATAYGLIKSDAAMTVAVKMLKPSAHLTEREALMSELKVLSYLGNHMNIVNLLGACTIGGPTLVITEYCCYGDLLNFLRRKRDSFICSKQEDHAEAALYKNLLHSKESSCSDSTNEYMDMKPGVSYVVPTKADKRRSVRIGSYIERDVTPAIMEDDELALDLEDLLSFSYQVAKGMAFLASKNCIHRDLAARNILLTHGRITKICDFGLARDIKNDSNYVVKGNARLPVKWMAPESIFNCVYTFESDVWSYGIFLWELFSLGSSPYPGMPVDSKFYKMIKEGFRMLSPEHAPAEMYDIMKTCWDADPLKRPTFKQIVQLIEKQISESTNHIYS

With `Cn1cc(-c2cc(Oc3ccc4nc(N[C@H](CO)C5CCCCC5)sc4c3)ccn2)cn1` [Example 353, (S)-2-cyclohexyl-2-(6-(2-(1-methyl-1H-pyrazol-4-yl)pyridin-4-yloxy)benzo[d]thiazol-2-ylamino)ethanol], the inhibition at 1 µM (at kinase domain of cKIT; at kinase domain of PDGFRβ; in experiment [1]; in experiment [2] (MCSF dependent MNFS60 cells)) was 100% throughout.
In the case of `CNC(=O)c1cc(Oc2ccc3nc(NCCC4CC4)sc3c2)ccn1` [Example 290, 4-(2-(2-cyclopropylethylamino)benzo[d]thiazol-6-yloxy)-N-methylpicolinamide], the inhibition at 1 µM amounted to 10% on kinase domain of cKIT (compounds of Table 3), 15% at kinase domain of PDGFRβ (compounds of Table 3), 100% in experiment [1] (compounds of Table 3) and 2% in experiment [2] (compounds of Table 3).
Consider `CNC(=O)c1cc(Oc2ccc3nc(NCCc4cnccn4)sc3c2)ccn1` [Compound 148], for which the inhibition at 1 µM at kinase domain of cKIT (compounds of Table 3) was determined as 23%; on kinase domain of PDGFRβ (compounds of Table 3), 2%; in experiment [1] (compounds of Table 3) it was 96%; in experiment [2] (compounds of Table 3), 1%.
`C[C@H](Nc1nc2ccc(Oc3ccnc(-c4ccnn4C)c3)cc2s1)C1CCCCC1` [Example 277, (S)-N-(1-cyclohexylethyl)-6-(2-(1-methyl-1H-pyrazol-5-yl)pyridin-4-yloxy)benzo[d]thiazol-2-amine]: the inhibition at 1 µM is 26% at kinase domain of cKIT (compounds of Table 3), 5% on kinase domain of PDGFRβ (compounds of Table 3), 100% in experiment [1] (compounds of Table 3) and 24% in experiment [2] (compounds of Table 3).
For the molecule `CNC(=O)c1cc(Oc2ccc3nc(N[C@H]4CCC[C@H]4O)sc3c2)ccn1` [Example 322, 4-(2-((1S,2R)-2-hydroxycyclopentylamino)benzo[d]thiazol-6-yloxy)-N-methylpicolinamide], the inhibition at 1 µM on kinase domain of cKIT was 18%; at kinase domain of PDGFRβ, 11%; in experiment [1] it was 99%; in experiment [2] (MCSF dependent MNFS60 cells), 21%.
Regarding `c1ccc2c(Oc3ccc4nc(NC5CCCCCC5)sc4c3)ccnc2c1` [Example 247, N-cycloheptyl-6-(quinolin-4-yloxy)benzo[d]thiazol-2-amine], the inhibition at 1 µM stood at 100% at kinase domain of cKIT (compounds of Table 3), 80% at kinase domain of PDGFRβ (compounds of Table 3), 100% in experiment [1] (compounds of Table 3) and 100% in experiment [2] (compounds of Table 3).
For the molecule `CNC(=O)c1cc(Oc2ccc3nc(NCCc4ccccn4)sc3c2)ccn1` [Example 314, N-methyl-4-(2-(2-(pyridin-2-yl)ethylamino)benzo[d]thiazol-6-yloxy)picolinamide], the inhibition at 1 µM stood at 13% on kinase domain of cKIT, 12% on kinase domain of PDGFRβ, 99% in experiment [1] and 20% in experiment [2] (MCSF dependent MNFS60 cells).
With `CNC(=O)c1cc(Oc2ccc3nc(NCc4c(OC)cc(OC)cc4OC)oc3c2)ccn1` [Compound 113, 4-[2-(2,4,6-Trimethoxy-benzylamino)-benzooxazol-6-yloxy]-pyridine-2-carboxylic acid methylamide], the inhibition at 1 µM on kinase domain of cKIT worked out at 7%; on kinase domain of PDGFRβ, 17%; in experiment [1], 97%; in experiment [2] (MNFS60 cells) it was 19%.
In the case of `Cn1cc(-c2cc(Oc3ccc4nc(NCc5ccccc5OC(F)F)sc4c3)ccn2)cn1` [Example 356, N-(2-(difluoromethoxy)benzyl)-6-(2-(1-methyl-1H-pyrazol-4-yl)pyridin-4-yloxy)benzo[d]thiazol-2-amine], the inhibition at 1 µM on kinase domain of cKIT was found to be 100%; on kinase domain of PDGFRβ, 99%; in experiment [1], 100%; in experiment [2] (MCSF dependent MNFS60 cells), 100%.
As for `CC[C@H](C)[C@@H](CO)Nc1nc2ccc(Oc3ccnc4ccccc34)cc2s1` [Example 234, (2S,3S)-3-methyl-2-(6-(quinolin-4-yloxy)benzo[d]thiazol-2-ylamino)pentan-1-ol], the inhibition at 1 µM at kinase domain of cKIT (compounds of Table 3) turned out to be 64%; at kinase domain of PDGFRβ (compounds of Table 3), 56%; in experiment [1] (compounds of Table 3), 100%; in experiment [2] (compounds of Table 3), 78%.
As to `CNC(=O)c1cc(Oc2ccc3nc(NCC4CCOCC4)sc3c2)ccn1` [Compound 141, 4-{2-[(tetrahydro-pyran-4-ylmethyl)-amino]-benzothiazol-6-yloxy}-pyridine-2-carboxylic acid methylamide], the inhibition at 1 µM on kinase domain of cKIT was found to be 1%; on kinase domain of PDGFRβ, 0%; in experiment [1], 100%; in experiment [2] (MNFS60 cells) it was 22%.
As for `CNc1cc(Oc2ccc3nc(N[C@@H]4CCCC[C@H]4O)sc3c2)ccn1` [Example 368, (1R,2R)-2-(6-(2-(methylamino)pyridin-4-yloxy)benzo[d]thiazol-2-ylamino)cyclohexanol], the inhibition at 1 µM on kinase domain of cKIT was 24%; on kinase domain of PDGFRβ, 8%; in experiment [1], 100%; in experiment [2] (MCSF dependent MNFS60 cells), 12%.
For the molecule `O[C@@H]1CCCC[C@H]1Nc1nc2ccc(Oc3ccncc3Br)cc2s1` [Example 224, (1R,2R)-2-(6-(3-bromopyridin-4-yloxy)benzo[d]thiazol-2-ylamino)cyclohexanol], the inhibition at 1 µM stood at 26% on kinase domain of cKIT (compounds of Table 3), 0% at kinase domain of PDGFRβ (compounds of Table 3), 100% in experiment [1] (compounds of Table 3) and 33% in experiment [2] (compounds of Table 3).
Turning to `CNC(=O)c1cc(Oc2ccc3nc(NCc4cc(OC)ccc4OC)oc3c2)ccn1` [Compound 83, 4-[2-(2,5-Dimethoxy-benzyl-amino)-benzooxazol-6-yloxy]-pyridine-2-carboxylic acid methylamide], the inhibition at 1 µM on kinase domain of cKIT was found to be 12%; at kinase domain of PDGFRβ, 0%; in experiment [1], 99%; in experiment [2] (MNFS60 cells) it was 26%.
With `N#Cc1ccc2c(Oc3ccc4nc(NCC5CCCCC5)sc4c3)ccnc2c1` [Example 221, 4-(2-(cyclohexylmethylamino)benzo[d]thiazol-6-yloxy)quinoline-7-carbonitrile], the inhibition at 1 µM at kinase domain of cKIT (compounds of Table 3) was 97%; at kinase domain of PDGFRβ (compounds of Table 3) it was 88%; in experiment [1] (compounds of Table 3), 100%; in experiment [2] (compounds of Table 3), 52%.
`c1ccc2c(Oc3ccc4nc(NCCC5CCOCC5)sc4c3)ccnc2c1` [Example 252, 6-(quinolin-4-yloxy)-N-(2-(tetrahydro-2H-pyran-4-yl)ethyl)benzo[d]thiazol-2-amine]: the inhibition at 1 µM was determined as 100% at kinase domain of cKIT (compounds of Table 3), 6% on kinase domain of PDGFRβ (compounds of Table 3), 100% in experiment [1] (compounds of Table 3) and 81% in experiment [2] (compounds of Table 3).
For `COc1ccccc1CNc1nc2ccc(Oc3ccnc4ccccc34)cc2s1` [Example 257, N-(2-methoxybenzyl)-6-(quinolin-4-yloxy)benzo[d]thiazol-2-amine], the inhibition at 1 µM on kinase domain of cKIT (compounds of Table 3) was found to be 100%; at kinase domain of PDGFRβ (compounds of Table 3) it was 11%; in experiment [1] (compounds of Table 3) it was 100%; in experiment [2] (compounds of Table 3), 100%.
For the molecule `COC[C@H](Nc1nc2ccc(Oc3ccnc4ccccc34)cc2s1)[C@@H](O)c1ccccc1` [Example 233, (1S,2S)-3-methoxy-1-phenyl-2-(6-(quinolin-4-yloxy)benzo[d]thiazol-2-ylamino)propan-1-ol], the inhibition at 1 µM at kinase domain of cKIT (compounds of Table 3) amounted to 85%; on kinase domain of PDGFRβ (compounds of Table 3), 84%; in experiment [1] (compounds of Table 3) it was 100%; in experiment [2] (compounds of Table 3), 59%.
The like results for `Cn1nccc1-c1cc(Oc2ccc3nc(N[C@@H]4CCCC[C@H]4O)sc3c2)ccn1` [Example 265, (1R,2R)-2-(6-(2-(1-methyl-1H-pyrazol-5-yl)pyridin-4-yloxy)benzo[d]thiazol-2-ylamino)cyclohexanol] were, in that order, 9%, 12%, 100% and 32%.
The like results for `CNC(=O)c1cc(Oc2ccc3nc(NCC(O)COc4ccccc4)sc3c2)ccn1` (stereo not drawn) [Compound 124] were, in that order, 0%, 10%, 99% and 18%.
Taken in the same sequence, the figures for `N#Cc1ccc(-c2cc(Oc3ccc4nc(N[C@@H]5CCCC[C@H]5O)sc4c3)ccn2)cn1` [Example 287, 4-(2-((1R,2R)-2-hydroxycyclohexylamino)benzo[d]thiazol-6-yloxy)-2,3'-bipyridine-6'-carbonitrile] were 57%, 20%, 100% and 35%.

For the origin of these results see patent US8173689B2 (Novartis AG, priority 2006, dated 2012).
